Data reported in ChEMBL document CHEMBL4346723, “Targeting tropomyosin receptor kinase for cancer therapy” (Eur J Med Chem, 2019).

How the values were obtained:
PANC-1 = test: Antiproliferative activity against human PANC1 cells at 10 uM incubated for 48 hrs by MTT assay relative to control; type: functional
MIA PaCa-2 = test: Antiproliferative activity against human MIAPaCa2 cells at 10 uM incubated for 48 hrs by MTT assay relative to control; type: functional
BXPC-3 = test: Antiproliferative activity against human BxPC3 cells at 10 uM incubated for 48 hrs by MTT assay relative to control; type: functional
[1] = target: RAF proto-oncogene serine/threonine-protein kinase (Homo sapiens, UniProt P04049); test: Inhibition of c-RAF (unknown origin)
RAF proto-oncogene serine/threonine-protein kinase, sequence (P04049 whole entry): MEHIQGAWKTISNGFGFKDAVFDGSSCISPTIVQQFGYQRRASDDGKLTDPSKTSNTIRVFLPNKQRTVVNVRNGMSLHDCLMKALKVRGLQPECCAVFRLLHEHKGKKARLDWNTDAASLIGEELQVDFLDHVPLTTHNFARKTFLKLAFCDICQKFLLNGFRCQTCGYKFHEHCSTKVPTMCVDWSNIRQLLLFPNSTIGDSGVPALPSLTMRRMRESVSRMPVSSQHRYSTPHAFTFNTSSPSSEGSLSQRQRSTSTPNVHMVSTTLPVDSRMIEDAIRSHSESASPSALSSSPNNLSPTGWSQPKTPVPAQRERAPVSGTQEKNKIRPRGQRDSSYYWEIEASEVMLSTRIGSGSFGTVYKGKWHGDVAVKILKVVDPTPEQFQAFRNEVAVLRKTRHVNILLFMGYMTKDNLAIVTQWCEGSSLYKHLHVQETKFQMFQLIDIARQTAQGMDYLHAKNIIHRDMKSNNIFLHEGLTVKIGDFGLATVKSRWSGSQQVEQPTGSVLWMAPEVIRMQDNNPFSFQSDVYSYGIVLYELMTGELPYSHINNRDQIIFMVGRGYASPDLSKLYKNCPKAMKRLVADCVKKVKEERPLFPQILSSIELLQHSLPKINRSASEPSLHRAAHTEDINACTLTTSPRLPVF

Aurora kinase A = target: T1, Aurora kinase A (Homo sapiens, UniProt O14965); test: Inhibition of aurora A (unknown origin)
T1 sequence (O14965 whole entry): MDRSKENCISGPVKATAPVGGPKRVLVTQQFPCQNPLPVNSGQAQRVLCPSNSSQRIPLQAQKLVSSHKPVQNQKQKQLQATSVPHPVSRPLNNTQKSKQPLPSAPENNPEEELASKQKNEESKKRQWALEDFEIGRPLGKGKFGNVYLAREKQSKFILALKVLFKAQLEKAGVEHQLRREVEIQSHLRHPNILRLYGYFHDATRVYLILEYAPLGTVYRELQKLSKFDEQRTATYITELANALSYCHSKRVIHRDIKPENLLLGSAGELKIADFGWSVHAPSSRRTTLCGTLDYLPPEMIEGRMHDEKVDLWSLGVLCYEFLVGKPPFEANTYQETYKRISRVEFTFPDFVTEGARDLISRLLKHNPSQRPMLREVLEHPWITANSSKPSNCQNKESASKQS

IC50 [1] [µM] | IC50 (Aurora kinase A) [µM] | Structure (SMILES) | Activity (PANC-1) [%] | Activity (MIA PaCa-2) [%] | Activity (BXPC-3) [%]
 |  | CN(C)S(=O)(=O)c1cc(-c2cnc3[nH]cc(-c4ccncc4)c3c2)cnc1N | 30 | <20 | <20
0.116 | 0.015 | Cc1cn(-c2cc(C(=O)Nc3cccc(Nc4ccc5c(c4)NC(=O)/C5=C\c4ccc[nH]4)c3)cc(C(F)(F)F)c2)cn1 |  |  | 
